Results: paper PMC7769561, “Antileishmanial activity of synthetic analogs of the naturally occurring quinolone alkaloid N-methyl-8-methoxyflindersin” (PLoS ONE, 2020)
≈ marks a conversion by molar mass, not a printed value. Where “and” joins values, the source holds several entries; their conditions need not be identical. Equal values may be shown once. Entries after “also recorded” stand apart in the source; their conditions may differ. Read-outs that look alike come from different tables or passages of the source.

Legend:
[1] = test system: L. (V.) panamensis promastigotes; assay: Antileishmanial activity in L. (V.) panamensis promastigotes (resazurin, 72 h); assay type: cell-based, Leishmania (Viannia) panamensis
Procedure: They were treated with quinoline alkaloid–like compounds at a concentration of 100, 10, 1, 0.1, and 0.01 μg/mL for 72 h at 26°C. Next, we determined antileishmanial activity using the resazurin method (Sigma-Aldrich). Promastigotes treated with amphotericin B (Sigma-Aldrich) and pentamidine (Sanofi-Aventis, Gentilly, France) were used as parasite death (positive) controls. Results were expressed as the medial effective concentration (EC50) using Prism GraphPad software for nonlinear regression analysis (https://www.graphpad.com/scientific-software/prism/).
(§1) All assays required at least three independently duplicated experiments. We determined cytotoxicity against hMDMs and effectivity in L. (V) panamensis promastigotes according to each treatment’s mortality (compound and concentration) using Eq 1, where the control mean fluorescence intensity (MFI) was 100% viability: Validityinhibition(%)=100−[MIFexposedcells/MIFunexposedcells×100] (1)
(§2) We used GraphPad Prism nonlinear regression analysis to estimate the percentage mortality with regard to CC50 and EC50. […] The antileishmanial activity with regard to promastigotes was classified as active according to Eq 2: Active=EC50<[LC50/2], (2) where LC50 is the median lethal concentration. We also used GraphPad Prism nonlinear regression analysis to determine the intracellular antileishmanial activity (concentration vs. response), depending on the infection (number of infected cells) and parasite burden (number of parasites/cell) obtained in experimental conditions. Parasite inhibition was estimated using Eq 3, where the plate MFI is 100% parasites: Infectioninhibition(%)=100−[(MIFexposedparasites/MIFunexposedparasites×100)] (3)

[2] = test system: L. (V.) panamensis intracellular amastigotes; assay: Antileishmanial activity in L. (V.) panamensis intracellular amastigotes in hMDMs; assay type: cell-based, Leishmania (Viannia) panamensis; conditions: for SI (selectivity index = CC50/EC50): CC50 hMDMs / EC50 intracellular amastigotes; for EC50 Intracellular amastigotes: amastigotes in hMDMs, 72 h, ± SD
Procedure: Next, 100 μL of the suspension was cultured in 96-well plates and infected with L. (V.) panamensis promastigotes (HMOM/COL/87/UA-140) at a 10:1 parasite:cell ratio. We incubated the plates in a 5% CO2 atmosphere for 4 h at 35°C. After incubation, we removed noninternalized parasites by washing the cells with 0.9% NaCl saline solution (Baxter International, Deerfield, IL, USA). The cells were incubated again for 24 h and then treated with each quinoline alkaloid–like compound at a concentration of 100, 10, 1, 0.1, and 0.01 μg/mL in a 5% CO2 atmosphere for 72 h at 36°C. Next, we quantified the percentage of infected cells using fluorescence microscopy, as previously described by Pérez-Cordero in 2011 [23], and quantified the parasite load (amount of intracellular promastigotes and amastigotes per cell) using Giemsa staining and flow cytometry (Cytomics FC 500 MPL; Beckman Coulter, Brea, CA, USA). […] Results were expressed as EC50 using Prism GraphPad software’s probit nonlinear regression analysis (https://www.graphpad.com/scientific-software/prism/).
as §2
The percentage inhibition was used to calculate EC50 by nonlinear regression analysis (fluorescence microscopy), while the parasite burden was evaluated as the percentage of intracellular promastigotes and amastigotes in 100 infected cells (Giemsa staining). […] The selectivity index (SI) was estimated using the following formula: SI=CC50/EC50

hMDMs = assay: Cytotoxicity in hMDMs (resazurin, 72 h); conditions: class by CC50
Procedure: (§3) We isolated hMDMs from buffy coats donated by the Institute of Local Science (Biotechnology and Health Innovation, Bogotá, Colombia) and spun them in Lymphoprep density gradient medium (Stem-Cell, Vancouver, Canada).
(§4) Next, we added 100 μL of this culture to each quinoline alkaloid–like compound at a concentration of 200, 20, 2, 0.2, and 0.02 μg/mL. […] Cells treated with amphotericin B (Sigma-Aldrich) were used as cell apoptosis (positive) controls. Results were expressed as the medial cytotoxic concentration (CC50) using Prism GraphPad software for nonlinear regression analysis (https://www.graphpad.com/scientific-software/prism/).
as §1, §2

[3] = test system: L. (V.) panamensis intracellular amastigotes; assay: Transmission electron microscopy of L. (V.) panamensis intracellular amastigotes in hMDMs; assay type: cell-based, Leishmania (Viannia) panamensis; parameters: Nucleus (ultrastructural alteration grade) / Vacuoles (ultrastructural alteration grade): key: -: no alteration/absence; +: low alteration/low presence; ++: alteration/moderate presence; +++: serious disturbance/abundant presence; conditions: compound at EC50, 72 h, TEM; for Cell membrane (ultrastructural alteration grade): key: -: no alteration/absence; +: low alteration/low presence; ++: alteration/moderate presence; +++: serious disturbance/abundant presence; for Flagellum (flagellar/axonema pocket) (grade): key: -: no alteration/absence; +: low alteration/low presence; ++: alteration/moderate presence; +++: serious disturbance/abundant presence; for LB (lipid bodies, grade): key: -: no alteration/absence; +: low alteration/low presence; ++: alteration/moderate presence; +++: serious disturbance/abundant presence; for Mitochondria/Kinetoplasts (ultrastructural alteration grade): key: -: no alteration/absence; +: low alteration/low presence; ++: alteration/moderate presence; +++: serious disturbance/abundant presence
Excerpt: (§5) This procedure involved including fresh resin and 100–200-nm-wide ultrafine cuts observed by TEM (100X–10.000X) (HITACHI-HU-12; Hitachi, Tokyo, Japan).

[4] = test system: L. (V.) panamensis-infected hMDMs; assay: NO production in L. (V.) panamensis-infected hMDMs (DAF-FM flow cytometry); assay type: cell-based, human; conditions: compound at EC50, 24, 48 and 72 h
Procedure: (§6) Next, we detached the cells with ethylenediaminetetraacetic acid (EDTA)/trypsin (Lonza, MD, USA) and 2',7'-dichlorodihydrofluorescein diacetate (H2DCFDA) tagged on a 5 μM fluorescent tube (Sigma-Aldrich) in order to identify intracellular ROS and/or 4-amino-5-methylamino-2′,7′-difluorofluorescein (DAF-FM; Sigma-Aldrich) for NO production in a 5% CO2 atmosphere for 45 min at 37°C. ROS and NO were quantified using flow cytometry (FACS Canto II) at a wavelength of 480 nm. Untreated cells were used as negative controls, while cells treated with 0.0001% H2O2 and 1 μM phorbol myristate acetate were used as ROS production (positive) controls. LPS (10 ng/mL) and phytohemagglutinin (PHA-M) (10 μL/mL) (Invitrogen) were used as positive controls for NO production.

[5] = test system: L. (V.) panamensis (MHOM/COL/87/UA140-EGFP); assay: Therapeutic in vivo response in hamsters with experimental cutaneous leishmaniasis; parameters: species or system golden hamster (Mesocrisetus auratus)
Excerpt: We used a golden hamster (Mesocrisetus auratus) model to evaluate the therapeutic response of synthetic alkaloid compounds 2 and 8. Male and female 6-week-old hamsters with a mean live weight (LW) of 120 g were infected by a dorsal intradermic injection of L. (V.) panamensis (MHOM/COL/87/UA140-EGFP) promastigotes. After the infected hamsters developed ulcers, they were randomly divided into three groups (n = 6 each) and treated topically with 1% ointment formulated from compounds 2 and 8.
(§7) The hamsters were monitored every 4 weeks to assess their appearance and weight and the lesion size. We categorized each compound’s effectiveness pre- and posttreatment as follows: (i) cure (complete disappearance of lesions), (ii) improvement (>10% reduced lesion area), and (iii) therapeutic failure or nonresponse (increased lesion size). The health status was monitored weekly for 3 months (12 weeks) posttreatment. After 3 months, the hamsters were euthanized in a CO2 chamber. We performed histopathological analysis after necropsy of the affected tissues and organs. In addition, we evaluated treatment cytotoxicity using LW monitoring and biochemical parameters (alanine aminotransferase [ALT], creatinine, and blood urea nitrogen [BUN]) pretreatment and 45 days after ointment administration.
The in vivo efficacy of compounds 1, 2, and 8 was expressed as a percentage cure, improvement, or nonresponse compared to the beginning of treatment. Efficacy was evaluated in vivo to compare percentages, the frequency of change, and treatment cytotoxicity in the hamster model. We used GraphPad Prism to determine ROS and NO production and the apoptotic cell percentage. One- or two-way analysis of variance (ANOVA; response–time kinetics) was used to compare treatments after confirming normal data distribution. P < 0.05 was considered statistically significant by comparing untreated cells (experiments on untreated hMDMs) with infected cells (experiments on untreated and treated hMDMs).

[6] = Cytotoxicity in hMDMs (resazurin, 72 h); conditions: human
Procedure: as §3, §4, §1, §2

[7] = Treatment toxicity in hamsters (live weight, ALT, creatinine, BUN); assay type: in vivo, golden hamster (Mesocrisetus auratus)
Excerpt: as §7

[8] = test system: L. (V.) panamensis-infected hMDMs; assay: Transmission electron microscopy of L. (V.) panamensis-infected hMDMs; assay type: cell-based, human; conditions: compound at EC50, 72 h, TEM
Excerpt: as §5

[9] = test system: L. (V.) panamensis-infected hMDMs; assay: ROS generation in L. (V.) panamensis-infected hMDMs (H2DCFDA flow cytometry); assay type: cell-based, human; conditions: compound at EC50, 4, 24, 48 and 72 h
Procedure: as §6

[10] = L. (V.) panamensis promastigotes, ± SD
[11] = L. (V.) panamensis promastigotes, ± SD, read-out: EC50 Intracellular promastigotes (converted)
[12] = hamsters, topical 1% ointment, 3 months posttreatment, n = 6

CCCc1c(CC)nc2ccccc2c1C(=O)O [Compound 3, carboxylic acid 2-ethyl-3-propyl-4-quinolinine]
EC50 Intracellular promastigotes [1, 10]: 93.8 ± 6.3 µg/mL (≈ 386 µM)
EC50 [1, 11]: 496 µM
SI (selectivity index = CC50/EC50) [2]: 1.27
EC50 Intracellular amastigotes [2]: 121.9 ± 6.2 µg/mL (≈ 501 µM)
Cytotoxicity class toward hMDMs (hMDMs): moderate (moderate if CC50 from 100 to <200 μg/mL)

Cc1cc2ncccc2c2nc(N)n(C)c12 [Compound 7, 3,4-dimethyl-3H-imidazol [4.5f]-quinoline-2-amine]
EC50 Intracellular promastigotes [1, 10]: 26.5 ± 5.8 µg/mL (≈ 125 µM)
EC50 [1, 11]: 134 µM
SI (selectivity index = CC50/EC50) [2]: 1.70
EC50 Intracellular amastigotes [2]: 55.8 ± 8.3 µg/mL (≈ 263 µM)

COc1ccc2c(OC)c3ccoc3nc2c1OC [Compound 5, 4,7,8-trimetoxifure [2,3-b]-quinoline]
EC50 Intracellular promastigotes [1, 10]: 66.4 ± 13 µg/mL (≈ 256 µM)
EC50 [1, 11]: 256 µM
SI (selectivity index = CC50/EC50) [2]: 1.73
EC50 Intracellular amastigotes [2]: 61.7 ± 1.1 µg/mL (≈ 238 µM)

Nc1ccc2cccc(O)c2n1 [Compound 8, 2-amino-8-hydroxyquinoline]
EC50 ([1]; read-out: EC50 Intracellular promastigotes): 1.6 µg/mL and 10 µM
Cell membrane (ultrastructural alteration grade) [3]: -
Flagellum (flagellar/axonema pocket) (description) [3]: Membrane swelling
Flagellum (flagellar/axonema pocket) (grade) [3]: +++
LB (lipid bodies, grade) [3]: -
Mitochondria/Kinetoplasts (description) [3]: Membrane swelling
Mitochondria/Kinetoplasts (ultrastructural alteration grade) [3]: +++
Nucleus (description) [3]: Abnormal distribution of chromatine
Nucleus (ultrastructural alteration grade) [3]: ++
PV (description) [3]: Individuals attached to the parasite
PV (parasitophorous vacuoles, grade) [3]: +
Vacuoles (description) [3]: Double membrane (autophagic-digestives)
Vacuoles (ultrastructural alteration grade) [3]: +++
NO production compared to untreated infected hMDMs [4]: do not modulate the induction of NO production
Histopathologic analysis of the skin, cured hamsters ([5]; hamsters cured by treatment, hematoxylin/eosin): mixed leucocyte infiltratation
Lesion size during treatment ([5]; hamsters, topical 1% ointment): significantly reduced lesions
Improvement (reduced lesion size), percentage of the experimental group [5, 12]: 50%
No effect (poor response), percentage of the experimental group [5, 12]: 16.6%
Total cure (healing), percentage of the experimental group [5, 12]: 33.3%
Antileishmanial activity class ([2]; intracellular amastigotes, class by EC50): high (high if EC50 < 25 μg/mL)
CC50 at 72 h [6]: 5.5 µg/mL and 34 µM
Cytotoxicity class toward hMDMs (hMDMs): high (high if CC50 < 100 μg/mL)
Serum BUN level ([7]; compared to before treatment): significantly decreased
Cytotoxicity-related clinical manifestations ([7]; topical 1% ointment): No cytotoxicity-related clinical manifestations
Live weight posttreatment ([7]; topical 1% ointment): no evident changes during treatment
Cell membrane (ultrastructural modification grade) [8]: -
LB (lipid bodies, grade) [8]: -
Mitochondria (ultrastructural modification grade) [8]: +
Nucleus (description) [8]: Abnormal distribution of chromatin; also recorded: Nuclear membrane alteration
Nucleus (ultrastructural modification grade) [8]: +++
PV (description) [8]: Individuals, attached to the parasite
PV (parasitophorous vacuoles, grade) [8]: +
Parasites (grade) [8]: +
Vacuoles (description) [8]: Double membrane (autophagic-digestives)
Vacuoles (ultrastructural modification grade) [8]: +++
ROS generation compared to infected control cells [9]: no significant variations

COc1ccccc1-c1cc(C(=O)O)c2ccc(C)c(C)c2n1 [Compound 6, carboxylic acid-7,8-tetrahydro-quinoline]
EC50 Intracellular promastigotes [1, 10]: 61.3 ± 29.6 µg/mL (≈ 199 µM)
EC50 [1, 11]: 240 µM
SI (selectivity index = CC50/EC50) [2]: 1.89
EC50 Intracellular amastigotes [2]: 46.5 ± 9.4 µg/mL (≈ 151 µM)
